Experiments:
[1] = Cytotoxicity against human SPCA2 cells after 48 hrs by MTT assay; format: functional, cell-based; details: SPCA2, 48 h
[2] = tested on: HepG2; test: Cytotoxicity against human HepG2 cells after 48 hrs by MTT assay; format: functional, cell-based; details: HepG2, 48 h
[3] = tested on: HeLa; test: Cytotoxicity against human HeLa cells after 48 hrs by MTT assay; format: functional, cell-based
[4] = tested on: HCT-116; test: Cytotoxicity against human HCT116 cells after 48 hrs by MTT assay; format: functional, cell-based; details: HCT-116, 48 h
[5] = tested on: CNE; test: Cytotoxicity against human CNE cells after 48 hrs by MTT assay; format: functional, cell-based
[6] = tested on: HUVEC; test: Cytotoxicity against human HUVEC after 48 hrs by MTT assay; format: cell-based
[7] = tested on: HCT-116; test: Cytotoxicity against human HCT116 cells; format: functional, cell-based
[8] = Cytotoxicity against human COLO320DM cells; format: functional, cell-based; details: COLO 320DM
[9] = tested on: DNA; test: Binding affinity to F32T oligonucleotide DNA assessed as change in melting temperature by FRET assay

Row | ΔTm [9] [°C] | Compound | IC50 [1] [µM] | IC50 [2] [µM] | IC50 [3] [µM] | IC50 [4] [µM] | IC50 [5] [µM] | IC50 [6] [µM] | IC50 [7] [µM] | IC50 [8] [µM]
1 |  | CCOP(=O)(OCC)C(NC(=O)c1cc(O)c2c(c1)C(=O)c1cccc(O)c1C2=O)c1ccc(Br)cc1 (configuration not stated) | 88.2 | 94.2 | 98.2 | 65.5 | 42.5 | > 100 |  | 
2 | 2 | O=C(O)c1cc(O)c2c(c1)C(=O)c1cccc(O)c1C2=O [RHEIN] |  |  |  |  |  | 89.7 | 135 | 62.5
3 |  | CCOP(=O)(OCC)C(NC(=O)c1cc(O)c2c(c1)C(=O)c1cccc(O)c1C2=O)c1ccc(OC)cc1 (configuration not stated) | 38.9 | 44.4 | 40.1 | 22.1 | 42.9 | > 100 |  | 
4 |  | CCOP(=O)(OCC)C(NC(=O)c1cc(O)c2c(c1)C(=O)c1cccc(O)c1C2=O)c1ccc2ccccc2c1 (configuration not stated) | > 100 | > 100 | > 100 | > 100 | > 100 | > 100 |  | 
5 |  | CCOP(=O)(OCC)C(NC(=O)c1cc(O)c2c(c1)C(=O)c1cccc(O)c1C2=O)c1cccc(C)c1 (configuration not stated) | 67.7 | 62.2 | 73.3 | 45.4 | 74.2 | > 100 |  | 
6 |  | CCOP(=O)(OCC)C(NC(=O)c1cc(O)c2c(c1)C(=O)c1cccc(O)c1C2=O)c1ccc(F)cc1 (configuration not stated) | 24.3 | 59.4 | 95.4 | 57.8 | 34.6 | > 100 |  | 
7 |  | CCOP(=O)(OCC)C(NC(=O)c1cc(O)c2c(c1)C(=O)c1cccc(O)c1C2=O)c1ccccc1Br (configuration not stated) | 85.5 | 88.3 | 79.6 | 48.9 | 55.7 | > 100 |  | 
8 |  | CCOP(=O)(OCC)C(NC(=O)c1cc(O)c2c(c1)C(=O)c1cccc(O)c1C2=O)c1ccc(C)cc1 (configuration not stated) | 74.4 | 77.9 | 89 | 54.3 | 79.4 | > 100 |  | 
9 |  | CCOP(=O)(OCC)C(NC(=O)c1cc(O)c2c(c1)C(=O)c1cccc(O)c1C2=O)c1ccccc1F (configuration not stated) | 79.9 | 71.2 | 94.2 | 36.6 | 67.6 | > 100 |  | 
